# Data reported in ChEMBL document CHEMBL1151757, “Synthesis, radiosynthesis, and biological evaluation of fluorine-18-labeled 2beta-carbo(fluoroalkoxy)-3beta-(3'-((Z)-2-haloethenyl)phenyl)nortropanes: candidate radioligands for in vivo imaging of the serotonin transporter with positron emission tomography” (J Med Chem, 2008).
# Tests used:
# [1] = Ratio of drug uptake in pons to cerebellum in anesthetized cynomolgus monkey after 95 mins postinjection; format: ADME, organism-based, Macaca fascicularis; details: in vivo
# [2] = Ratio of drug uptake in medulla to cerebellum in anesthetized cynomolgus monkey after 0.5 mins postinjection; format: ADME, organism-based, Macaca fascicularis; details: in vivo
# [3] = Ratio of drug uptake in medulla to cerebellum in anesthetized cynomolgus monkey after 9.5 mins postinjection; format: ADME, organism-based, Macaca fascicularis; details: in vivo
# [4] = Ratio of drug uptake in medulla to cerebellum in anesthetized cynomolgus monkey after 12.5 mins postinjection; format: ADME, organism-based, Macaca fascicularis; details: in vivo
# [5] = Ratio of drug uptake in medulla to cerebellum in anesthetized cynomolgus monkey after 95 mins postinjection; format: ADME, organism-based, Macaca fascicularis; details: in vivo
# [6] = Ratio of drug uptake in medulla to cerebellum in anesthetized cynomolgus monkey after 135 mins postinjection; format: ADME, organism-based, Macaca fascicularis; details: in vivo, 2.25 h
# [7] = Drug uptake in anesthetized cynomolgus monkey brain occipital lobe after 2.5 mins postinjection; format: ADME, organism-based, Macaca fascicularis; details: in vivo
# [8] = Drug uptake in anesthetized cynomolgus monkey brain occipital lobe after 18.5 mins postinjection; format: ADME, organism-based, Macaca fascicularis; details: in vivo
# [9] = Drug uptake in anesthetized cynomolgus monkey brain occipital lobe after 55 mins postinjection; format: ADME, organism-based, Macaca fascicularis; details: in vivo
# [10] = Drug uptake in anesthetized cynomolgus monkey brain occipital lobe after 65 mins postinjection; format: ADME, organism-based, Macaca fascicularis; details: in vivo
# [11] = Drug uptake in anesthetized cynomolgus monkey brain occipital lobe after 135 mins postinjection; format: ADME, organism-based, Macaca fascicularis; details: in vivo, 2.25 h
# [12] = Drug uptake in anesthetized cynomolgus monkey brain frontal lobe after 9.5 mins postinjection; format: ADME, organism-based, Macaca fascicularis; details: in vivo
# [13] = Drug uptake in anesthetized cynomolgus monkey brain frontal lobe after 85 mins postinjection; format: ADME, organism-based, Macaca fascicularis; details: in vivo
# [14] = Ratio of drug uptake in midbrain to cerebellum in anesthetized cynomolgus monkey after 215 mins postinjection; format: ADME, organism-based, Macaca fascicularis; details: in vivo
# [15] = Ratio of drug uptake in occipital lobe to cerebellum in anesthetized cynomolgus monkey after 95 mins postinjection; format: ADME, organism-based, Macaca fascicularis; details: in vivo
# [16] = tested on: Putamen; experiment: Drug uptake in anesthetized cynomolgus monkey brain putamen after 175 mins postinjection; format: ADME, organism-based, Macaca fascicularis; details: in vivo
# [17] = tested on: Putamen; experiment: Drug uptake in anesthetized cynomolgus monkey brain putamen after 235 mins postinjection; format: ADME, organism-based, Macaca fascicularis; details: in vivo
# [18] = Ratio of drug uptake in occipital lobe to cerebellum in anesthetized cynomolgus monkey after 195 mins postinjection; format: ADME, organism-based, Macaca fascicularis; details: in vivo, 3.25 h
# [19] = Ratio of drug uptake in frontal lobe to cerebellum in anesthetized cynomolgus monkey after 35 mins postinjection; format: ADME, organism-based, Macaca fascicularis; details: in vivo
# [20] = Ratio of drug uptake in frontal lobe to cerebellum in anesthetized cynomolgus monkey after 125 mins postinjection; format: ADME, organism-based, Macaca fascicularis; details: in vivo
# [21] = tested on: Midbrain; experiment: Drug uptake in anesthetized cynomolgus monkey brain midbrain after 215 mins postinjection; format: ADME, organism-based, Macaca fascicularis; details: in vivo
# [22] = tested on: Pons; experiment: Drug uptake in anesthetized cynomolgus monkey brain pons after 0.5 mins postinjection; format: ADME, organism-based, Macaca fascicularis; details: in vivo
# [23] = tested on: Pons; experiment: Drug uptake in anesthetized cynomolgus monkey brain pons after 27.5 mins postinjection; format: ADME, organism-based, Macaca fascicularis; details: in vivo
# [24] = tested on: Pons; experiment: Drug uptake in anesthetized cynomolgus monkey brain pons after 35 mins postinjection; format: ADME, organism-based, Macaca fascicularis; details: in vivo
# [25] = tested on: Pons; experiment: Drug uptake in anesthetized cynomolgus monkey brain pons after 55 mins postinjection; format: ADME, organism-based, Macaca fascicularis; details: in vivo
# [26] = tested on: Pons; experiment: Drug uptake in anesthetized cynomolgus monkey brain pons after 65 mins postinjection; format: ADME, organism-based, Macaca fascicularis; details: in vivo
# [27] = tested on: Midbrain; experiment: Drug uptake in anesthetized cynomolgus monkey brain midbrain after 185 mins postinjection; format: ADME, organism-based, Macaca fascicularis; details: in vivo
# [28] = tested on: Medulla; experiment: Drug uptake in anesthetized cynomolgus monkey brain medulla after 185 mins postinjection; format: ADME, organism-based, Macaca fascicularis; details: in vivo
# [29] = tested on: Medulla; experiment: Drug uptake in anesthetized cynomolgus monkey brain medulla after 205 mins postinjection; format: ADME, organism-based, Macaca fascicularis; details: in vivo
# [30] = Drug uptake in anesthetized cynomolgus monkey brain occipital lobe after 205 mins postinjection; format: ADME, organism-based, Macaca fascicularis; details: in vivo
# [31] = Ratio of drug uptake in frontal lobe to cerebellum in anesthetized cynomolgus monkey after 235 mins postinjection; format: ADME, organism-based, Macaca fascicularis; details: in vivo
# [32] = Ratio of drug uptake in frontal lobe to cerebellum in anesthetized cynomolgus monkey after 205 mins postinjection; format: ADME, organism-based, Macaca fascicularis; details: in vivo
# [33] = tested on: Putamen; experiment: Drug uptake in anesthetized cynomolgus monkey brain putamen after 185 mins postinjection; format: ADME, organism-based, Macaca fascicularis; details: in vivo
# [34] = tested on: Putamen; experiment: Drug uptake in anesthetized cynomolgus monkey brain putamen after 195 mins postinjection; format: ADME, organism-based, Macaca fascicularis; details: in vivo, 3.25 h
# [35] = Ratio of drug uptake in caudate to cerebellum in anesthetized cynomolgus monkey after 65 mins postinjection; format: ADME, organism-based, Macaca fascicularis; details: in vivo
# [36] = Ratio of drug uptake in caudate to cerebellum in anesthetized cynomolgus monkey after 155 mins postinjection; format: ADME, organism-based, Macaca fascicularis; details: in vivo
# [37] = tested on: Pons; experiment: Drug uptake in anesthetized cynomolgus monkey brain pons after 125 mins postinjection; format: ADME, organism-based, Macaca fascicularis; details: in vivo
# [38] = tested on: Pons; experiment: Drug uptake in anesthetized cynomolgus monkey brain pons after 215 mins postinjection; format: ADME, organism-based, Macaca fascicularis; details: in vivo
# [39] = tested on: Medulla; experiment: Drug uptake in anesthetized cynomolgus monkey brain medulla after 45 mins postinjection; format: ADME, organism-based, Macaca fascicularis; details: in vivo, 0.75 h
# [40] = tested on: Medulla; experiment: Drug uptake in anesthetized cynomolgus monkey brain medulla after 55 mins postinjection; format: ADME, organism-based, Macaca fascicularis; details: in vivo
# [41] = Ratio of drug uptake in putamen to cerebellum in anesthetized cynomolgus monkey after 0.5 mins postinjection; format: ADME, organism-based, Macaca fascicularis; details: in vivo
# [42] = Ratio of drug uptake in putamen to cerebellum in anesthetized cynomolgus monkey after 6.5 mins postinjection; format: ADME, organism-based, Macaca fascicularis; details: in vivo
# [43] = tested on: Medulla; experiment: Drug uptake in anesthetized cynomolgus monkey brain medulla after 135 mins postinjection; format: ADME, organism-based, Macaca fascicularis; details: in vivo, 2.25 h
# [44] = tested on: Medulla; experiment: Drug uptake in anesthetized cynomolgus monkey brain medulla after 215 mins postinjection; format: ADME, organism-based, Macaca fascicularis; details: in vivo
# [45] = Drug uptake in anesthetized cynomolgus monkey brain cerebellum after 3.5 mins postinjection; format: ADME, organism-based, Macaca fascicularis; details: in vivo
# [46] = Drug uptake in anesthetized cynomolgus monkey brain cerebellum after 135 mins postinjection; format: ADME, organism-based, Macaca fascicularis; details: in vivo, 2.25 h
# [47] = Drug uptake in anesthetized cynomolgus monkey brain cerebellum after 215 mins postinjection; format: ADME, organism-based, Macaca fascicularis; details: in vivo
# [48] = Ratio of drug uptake in putamen to cerebellum in anesthetized cynomolgus monkey after 65 mins postinjection; format: ADME, organism-based, Macaca fascicularis; details: in vivo
# [49] = Ratio of drug uptake in thalamus to cerebellum in anesthetized cynomolgus monkey after 95 mins postinjection; format: ADME, organism-based, Macaca fascicularis; details: in vivo
# [50] = tested on: Caudate; experiment: Drug uptake in anesthetized cynomolgus monkey brain caudate after 9.5 mins postinjection; format: ADME, organism-based, Macaca fascicularis, Caudate nucleus; details: in vivo
# [51] = tested on: Caudate; experiment: Drug uptake in anesthetized cynomolgus monkey brain caudate after 15.5 mins postinjection; format: ADME, organism-based, Macaca fascicularis, Caudate nucleus; details: in vivo
# [52] = tested on: Caudate; experiment: Drug uptake in anesthetized cynomolgus monkey brain caudate after 18.5 mins postinjection; format: ADME, organism-based, Macaca fascicularis, Caudate nucleus; details: in vivo
# [53] = tested on: Caudate; experiment: Drug uptake in anesthetized cynomolgus monkey brain caudate after 45 mins postinjection; format: ADME, organism-based, Macaca fascicularis, Caudate nucleus; details: in vivo, 0.75 h
# [54] = tested on: Caudate; experiment: Drug uptake in anesthetized cynomolgus monkey brain caudate after 225 mins postinjection; format: ADME, organism-based, Macaca fascicularis, Caudate nucleus; details: in vivo, 3.75 h
# [55] = tested on: Caudate; experiment: Drug uptake in anesthetized cynomolgus monkey brain caudate after 235 mins postinjection; format: ADME, organism-based, Macaca fascicularis, Caudate nucleus; details: in vivo
# [56] = tested on: Putamen; experiment: Drug uptake in anesthetized cynomolgus monkey brain putamen after 3.5 mins postinjection; format: ADME, organism-based, Macaca fascicularis; details: in vivo
# [57] = tested on: Thalamus; experiment: Drug uptake in anesthetized cynomolgus monkey brain thalamus after 3.5 mins postinjection; format: ADME, organism-based, Macaca fascicularis; design: unit not given here; details: in vivo
# [58] = tested on: Thalamus; experiment: Drug uptake in anesthetized cynomolgus monkey brain thalamus after 27.5 mins postinjection; format: ADME, organism-based, Macaca fascicularis; design: unit not given here; details: in vivo
# [59] = tested on: Thalamus; experiment: Drug uptake in anesthetized cynomolgus monkey brain thalamus after 35 mins postinjection; format: ADME, organism-based, Macaca fascicularis; design: unit not given here; details: in vivo
# [60] = tested on: Thalamus; experiment: Drug uptake in anesthetized cynomolgus monkey brain thalamus after 45 mins postinjection; format: ADME, organism-based, Macaca fascicularis; design: unit not given here; details: in vivo, 0.75 h
# [61] = tested on: Putamen; experiment: Drug uptake in anesthetized cynomolgus monkey brain putamen after 4.5 mins postinjection; format: ADME, organism-based, Macaca fascicularis; design: unit not given here; details: in vivo, 0.075 h
# [62] = tested on: Putamen; experiment: Drug uptake in anesthetized cynomolgus monkey brain putamen after 9.5 mins postinjection; format: ADME, organism-based, Macaca fascicularis; design: unit not given here; details: in vivo
# [63] = tested on: Putamen; experiment: Drug uptake in anesthetized cynomolgus monkey brain putamen after 105 mins postinjection; format: ADME, organism-based, Macaca fascicularis; design: unit not given here; details: in vivo, 1.75 h
# [64] = tested on: Thalamus; experiment: Drug uptake in anesthetized cynomolgus monkey brain thalamus after 235 mins postinjection; format: ADME, organism-based, Macaca fascicularis; design: unit not given here; details: in vivo
# [65] = tested on: Midbrain; experiment: Drug uptake in anesthetized cynomolgus monkey brain midbrain after 45 mins postinjection; format: ADME, organism-based, Macaca fascicularis; design: unit not given here; details: in vivo, 0.75 h
# [66] = tested on: Midbrain; experiment: Drug uptake in anesthetized cynomolgus monkey brain midbrain after 75 mins postinjection; format: ADME, organism-based, Macaca fascicularis; design: unit not given here; details: in vivo, 1.25 h
# [67] = tested on: Midbrain; experiment: Drug uptake in anesthetized cynomolgus monkey brain midbrain after 85 mins postinjection; format: ADME, organism-based, Macaca fascicularis; design: unit not given here; details: in vivo
# [68] = Ratio of drug uptake in midbrain to cerebellum in anesthetized cynomolgus monkey after 125 mins postinjection; format: ADME, organism-based, Macaca fascicularis; details: in vivo
structure (smiles),measurement,setting,value
O=C(OCCC[18F])C1C2CCC(CC1c1cccc(/C=C\I)c1)N2 (stereo not drawn),Ratio,[1],1.3
same,Ratio,[2],1.5
same,Ratio,[3],0.9
same,Ratio,[4],1
same,Ratio,[5],1.4
same,Ratio,[6],1.7
same,Drug uptake,[7],0.62
same,Drug uptake,[8],3.85
same,Drug uptake,[9],4
same,Drug uptake,[10],3.86
same,Drug uptake,[11],2.82
same,Drug uptake,[12],2.11
same,Drug uptake,[13],2.71
same,Ratio,[14],1.8
same,Ratio,[15],1
same,Drug uptake,[16],3.61
same,Drug uptake,[17],3.02
same,Ratio,[18],1.1
same,Ratio,[19],0.6
same,Ratio,[20],0.9
same,Drug uptake,[21],3.69
same,Drug uptake,[22],0.01
same,Drug uptake,[23],4.39
same,Drug uptake,[24],4.25
same,Drug uptake,[25],4.4
same,Drug uptake,[26],4.54
same,Drug uptake,[27],4.05
same,Drug uptake,[28],3.93
same,Drug uptake,[29],3.76
same,Drug uptake,[30],2.3
same,Ratio,[31],0.9
same,Ratio,[32],1
same,Drug uptake,[33],3.51
same,Drug uptake,[34],3.39
same,Ratio,[35],1
same,Ratio,[36],1.4
same,Drug uptake,[37],3.82
same,Drug uptake,[38],3.11
same,Drug uptake,[39],5.13
same,Drug uptake,[40],5.06
same,Ratio,[41],1.5
same,Ratio,[42],0.8
same,Drug uptake,[43],4.5
same,Drug uptake,[44],3.66
same,Drug uptake,[45],1.95
same,Drug uptake,[46],2.66
same,Drug uptake,[47],2.06
same,Ratio,[48],1.2
same,Ratio,[49],1.3
same,Drug uptake,[50],2.7
same,Drug uptake,[51],3.34
same,Drug uptake,[52],3.38
same,Drug uptake,[53],4.05
same,Drug uptake,[54],2.46
same,Drug uptake,[55],2.41
same,Drug uptake,[56],1.59
same,Drug uptake,[57],1.44
same,Drug uptake,[58],4.66
same,Drug uptake,[59],4.81
same,Drug uptake,[60],4.84
same,Drug uptake,[61],2.31
same,Drug uptake,[62],3.75
same,Drug uptake,[63],4.52
same,Drug uptake,[64],2.78
same,Drug uptake,[65],5.02
same,Drug uptake,[66],5
same,Drug uptake,[67],4.92
same,Ratio,[68],1.6
